Several values for one entry are separate records, joined by “and”; a condition that tells them apart may be missing. Identical values can stand only once. Like-named read-outs stand apart in the source and are kept apart here.
Assays:
brain levels of GABA = settings: known compounds, literature; cited from earlier work
GABA-T [1] = settings: known compounds, literature; cited from earlier work
GABA-T [2] = assay: Biochemical tests for irreversible inhibition of GABA-T; settings: biochemical / biological tests
GABA-T [3] = assay: GABA-T activity in mouse brain after seven daily i.p. doses; type: in vivo, mice (male albino CD1); settings: 24 h after last dose
Experimental: (§1) Male albino CD1 mice each weighing approximately 34 g at commencement of the test are given an i.p. injection of the test compound in aqueous solution daily for seven consecutive days. Half of the animals are killed by decapitation 24 hours after the last dose fo the test compound. The other half of the animals are observed for up to 12 days for toxicity (as indicated by weight loss and deaths). Control animals receive an injecion of the vehicle only.
(§2) The brains are removed from the dead mice and are divided into two portions by sagittal section. One half is used for the measurement of GABA-T activity while the other is used for measuring GABA content. The GABA-T activity is measured using known methods as described by M. Jung et al., J.Neurochem., 28, 717 (1977) and 29, 797 (1977). GABA content is measured by perchloric acid or trichloroacetic acid extracts using an amino acid analyzer equiped with a fluorescence detector.

[4] = Toxicity (lethality) after i.p. or oral administration to mice
Experimental: A. The toxicity of (S)-allenyl GABA and (R,S)-allenyl GABA was determined after i.p. administration to male mice. The mice were observed up to eight days after injection.
B. The toxicity of (S)-allenyl GABA ("S") and (R,S)-allenyl GABA ("R,S") was determined as in Part A after both oral and i.p. administration.

GABA levels in the brain [5] = assay: GABA level in mouse brain after a single i.p. or oral dose; type: in vivo, mice; settings: for elevation of GABA levels in the CNS: administered orally or parenterally; for GABA Level (calculated as percent of control): 6 h; for effectiveness by oral versus i.p. route: oral vs i.p.
Experimental: […] […] The other half of the animals are observed for up to 12 days for toxicity (as indicated by weight loss and deaths). Control animals receive an injecion of the vehicle only.
as §2, with “The GABA-T activity is measured using known methods as described by M. Jung et al., J.Neurochem., 28, 717 (1977) and 29, 797 (1977).” left out
(§3) B. The procedure of Part A is repeated using both oral and i.p. doses of (R,S)-allenyl GABA.

GABA levels in the brain [6] = assay: GABA content of mouse brain after seven daily i.p. doses; type: in vivo, mice (male albino CD1); settings: 24 h after last dose
Experimental: as §1, §2

[7] = test system: seizures and death induced by mercaptopropionic acid; assay: Protection of mice against seizures and death induced by mercaptopropionic acid; type: in vivo; settings: for Number of Animals having seizures / Number of Dead animals: 6 h before mercaptopropionic acid 53 mg/kg i.p.
Text: Mice (3.5) were given a single i.p. injection of the test compound. […] The results of the testing are set forth below

GABA-T [8] = assay: GABA-T activity in mouse brain after a single i.p. or oral dose; type: in vivo, mice; settings: for GABA-T Activity (calculated as percent inhibition): 6 h
Experimental: as §1, §2
A. The procedure of Example 3 is repeated using a single i.p. dose of the test compound and killing the mice 6 hours after the i.p. injection.
as §3

[9] = 100 mg/kg i.p. daily for 7 days
[10] = i.p., 0.77 mM/kg (135.9 mg/kg), single dose, Table 3
[11] = i.p., 1.94 mM/kg (342.4 mg/kg), single dose, Table 3
[12] = i.p., 3.87 mM/kg (683.1 mg/kg), single dose, Table 3
[13] = oral, 0.77 mM/kg (135.9 mg/kg), single dose, Table 3
[14] = oral, 1.94 mM/kg (342.4 mg/kg), single dose, Table 3
[15] = oral, 3.87 mM/kg (683.1 mg/kg), single dose, Table 3
[16] = single i.p. dose 1.55 mM/kg (273.5 mg/kg), Table 2
[17] = single i.p. dose 3.10 mM/kg (547.2 mg/kg), Table 2
[18] = single i.p. dose 6.2 mM/kg (1094.3 mg/kg), Table 2
[19] = mercaptopropionic acid model, mice
[20] = single i.p. dose 0.77 mM/kg (135.9 mg/kg), Table 2

C=CC(N)CCC(=O)O (centres unmarked) [4-aminohex-5-enoic acid ("vinyl GABA"), 4-aminohex-5-enoic acid]
elevation of brain levels of GABA (brain levels of GABA): elevate brain levels of GABA | irreversible inhibition of GABA-T (GABA-T [1]): irreversible inhibitors of GABA-T

C=C=C[C@H](N)CCC(=O)O [(R)-allenyl GABA]
irreversible inhibition of GABA-T (GABA-T [2]): not an irreversible inhibitor of GABA-T | irreversible inhibition of GABA-T (GABA-T [2]; listed as (R)(-)-isomer): not active

C=C=CC(N)CCC(=O)O (racemic) [(R,S)-allenyl GABA, (R,S)-4-amino-hepta-5,6-dienoic acid]
GABA-T Activity (calculated as percent inhibition) (GABA-T [3]; 50 mg/kg i.p. daily for 7 days): 55 percent inhibition | GABA-T Activity (calculated as percent inhibition) (GABA-T [3]; [9]): 74 percent inhibition | selectivity ratio ([4]; mouse, in vivo, ip): 4 to 5 | No. of dead animals ([4]; mouse, in vivo, ip, 500 mg/kg): 0/5 | No. of dead animals Day 4 ([4]; mouse, in vivo, ip, 500 mg/kg): 0/5 | No. of dead animals ([4]; mouse, in vivo, ip, 750 mg/kg): 3/5 | No. of dead animals Day 4 ([4]; mouse, in vivo, ip, 750 mg/kg): 3/5 | No. of dead animals ([4]; mouse, in vivo, ip, 1000 mg/kg): 2/5 and 4/5 and 5/5 | No. of dead animals Day 4 ([4]; mouse, in vivo, ip, 1000 mg/kg): 5/5 | No. of dead animals ([4]; mouse, in vivo, ip, 1500 mg/kg): 5/5 | No. of dead animals Day 4 ([4]; mouse, in vivo, ip, 1500 mg/kg): 5/5 | No. of dead animals Day 4 ([4]; mouse, in vivo, po, 500 mg/kg): 0/5 | No. of dead animals Day 4 ([4]; mouse, in vivo, po, 750 mg/kg): 0/5 | No. of dead animals Day 4 ([4]; mouse, in vivo, po, 1000 mg/kg): 0/5 | No. of dead animals Day 4 ([4]; mouse, in vivo, po, 1500 mg/kg): 0/5 | toxicity by oral administration ([4]; oral): did not show toxicity by the oral route up to a dose of 1500 mg/kg | elevation of GABA levels in the CNS (GABA levels in the brain [5]): can elevate GABA levels significantly in the CNS | GABA Level (calculated as percent of control) (GABA levels in the brain [5]; [10]): 310% of control | GABA Level (calculated as percent of control) (GABA levels in the brain [5]; [11]): 490% of control | GABA Level (calculated as percent of control) (GABA levels in the brain [5]; [12]): 600% of control | effectiveness by oral versus i.p. route (GABA levels in the brain [5]; Table 3): equally effective when given by the oral and i.p. routes of administration | GABA Level (calculated as percent of control) (GABA levels in the brain [5]; [13]): 330% of control | GABA Level (calculated as percent of control) (GABA levels in the brain [5]; [14]): 434% of control | GABA Level (calculated as percent of control) (GABA levels in the brain [5]; [15]): 530% of control | GABA Level (calculated as percent of control) (GABA levels in the brain [5]; [16]): 470% of control | GABA Level (calculated as percent of control) (GABA levels in the brain [5]; [17]): 530% of control | GABA Level (calculated as percent of control) (GABA levels in the brain [5]; [18]): 770% of control | GABA Level (calculated as percent of control) (GABA levels in the brain [6]; 50 mg/kg i.p. daily for 7 days): 130% of control | GABA Level (calculated as percent of control) (GABA levels in the brain [6]; [9]): 180% of control | Number of Animals having seizures ([7]; 0.39 mMole/kg i.p.): 5/5 | Number of Dead animals ([7]; 0.39 mMole/kg i.p.): 3/5 | Number of Animals having seizures ([7]; 0.77 mMole/kg i.p.): 5/5 | Number of Dead animals ([7]; 0.77 mMole/kg i.p.): 2/5 | Number of Animals having seizures ([7]; 1.9 mMole/kg i.p.): 3/5 | Number of Dead animals ([7]; 1.9 mMole/kg i.p.): 0/5 | Number of Animals having seizures ([7]; 3.9 mMole/kg i.p.): 3/5 | Number of Dead animals ([7]; 3.9 mMole/kg i.p.): 0/5 | effect on number of dead animals [7, 19]: significantly reduces the number of dead animals | protection against seizures [7, 19]: does not protect totally against seizures | GABA-T Activity (calculated as percent inhibition) (GABA-T [8]; [10]): 64 percent inhibition | GABA-T Activity (calculated as percent inhibition) (GABA-T [8]; [11]): 84 percent inhibition | GABA-T Activity (calculated as percent inhibition) (GABA-T [8]; [12]): 88 percent inhibition | irreversible inhibition of GABA-T in vivo (GABA-T [8]): produce irreversible inhibition of GABA-T | GABA-T Activity (calculated as percent inhibition) (GABA-T [8]; [13]): 69 percent inhibition | GABA-T Activity (calculated as percent inhibition) (GABA-T [8]; [14]): 81 percent inhibition | GABA-T Activity (calculated as percent inhibition) (GABA-T [8]; [15]): 86 percent inhibition | GABA-T Activity (calculated as percent inhibition) (GABA-T [8]; [16]): 76 percent inhibition | GABA-T Activity (calculated as percent inhibition) (GABA-T [8]; [17]): 89 percent inhibition | GABA-T Activity (calculated as percent inhibition) (GABA-T [8]; [18]): 96 percent inhibition

C=C=C[C@@H](N)CCC(=O)O [(S)-allenyl GABA, (S)-4-amino-hepta-5,6-dienoic acid]
No. of dead animals ([4]; i.p., 250 mg/kg, Day 1): 0/5 | No. of dead animals ([4]; i.p., 250 mg/kg, Day 2): 0/5 | No. of dead animals ([4]; i.p., 250 mg/kg, Day 3): 0/5 | No. of dead animals ([4]; i.p., 250 mg/kg, Day 4): 0/5 | No. of dead animals ([4]; i.p., 250 mg/kg, Day 8): 0/5 | No. of dead animals ([4]; i.p., 375 mg/kg, Day 1): 0/5 | No. of dead animals ([4]; i.p., 375 mg/kg, Day 2): 0/5 | No. of dead animals ([4]; i.p., 375 mg/kg, Day 3): 0/5 | No. of dead animals ([4]; i.p., 375 mg/kg, Day 4): 0/5 | No. of dead animals ([4]; i.p., 375 mg/kg, Day 8): 0/5 | No. of dead animals ([4]; i.p., 500 mg/kg, Day 1): 0/5 | No. of dead animals ([4]; i.p., 500 mg/kg, Day 2): 0/5 | No. of dead animals ([4]; i.p., 500 mg/kg, Day 3): 0/5 | No. of dead animals ([4]; i.p., 500 mg/kg, Day 4): 0/5 | No. of dead animals ([4]; i.p., 500 mg/kg, Day 8): 0/5 | No. of dead animals ([4]; i.p., 750 mg/kg, Day 1): 0/5 | No. of dead animals ([4]; i.p., 750 mg/kg, Day 2): 0/5 | No. of dead animals ([4]; i.p., 750 mg/kg, Day 3): 0/5 | No. of dead animals ([4]; i.p., 750 mg/kg, Day 4): 0/5 | No. of dead animals ([4]; i.p., 750 mg/kg, Day 8): 0/5 | toxicity after i.p. administration ([4]; i.p., very large doses corresponding to maximal biological effects): non-toxic after i.p. administration of very large doses | toxicity by oral administration ([4]; oral): non-toxic by oral administration | No. of dead animals Day 4 ([4]; oral, 500 mg/kg, Day 4, Example 5 Part B): 0/5 | No. of dead animals Day 4 ([4]; oral, 750 mg/kg, Day 4, Example 5 Part B): 1/5 | relative potency for the elevation of GABA levels (GABA levels in the brain [5]; (S) versus (R,S), single i.p. dose, Table 2): twice the potency of (R,S)-allenyl GABA | elevation of GABA levels in the CNS (GABA levels in the brain [5]): can elevate GABA levels significantly in the CNS | effectiveness by oral versus i.p. route (GABA levels in the brain [5]; Table 3): equally effective when given by the oral and i.p. routes of administration | GABA Level (calculated as percent of control) (GABA levels in the brain [5]; [20]): 540% of control | GABA Level (calculated as percent of control) (GABA levels in the brain [5]; [16]): 670% of control | GABA Level (calculated as percent of control) (GABA levels in the brain [5]; [17]): 730% of control | irreversible inhibition of GABA-T (GABA-T [2]): irreversible inhibitor of GABA-T | irreversible inhibition of GABA-T in vivo (GABA-T [8]): produce irreversible inhibition of GABA-T | GABA-T Activity (calculated as percent inhibition) (GABA-T [8]; [20]): 79 percent inhibition | GABA-T Activity (calculated as percent inhibition) (GABA-T [8]; [16]): 92 percent inhibition | GABA-T Activity (calculated as percent inhibition) (GABA-T [8]; [17]): 96 percent inhibition

C#CC(N)CCC(=O)O (centres unmarked) [4-aminohex-5-ynoic acid]
elevation of brain levels of GABA (brain levels of GABA): elevate brain levels of GABA | irreversible inhibition of GABA-T (GABA-T [1]): irreversible inhibitors of GABA-T

C#CC(N)CCCN (centres unmarked) [1-acetylene-1,4-butanediamine]
elevation of brain levels of GABA (brain levels of GABA): elevate brain levels of GABA | irreversible inhibition of GABA-T (GABA-T [1]): irreversible inhibitors of GABA-T
